Converted amounts (≈) assume the structure as drawn. “Also recorded” adds a separate entry of the source.
Tests used:
[1] = test system: morphine antagonist activity; conditions: s.c., reported in a response filed during prosecution of the corresponding U.S. application; cited from earlier work
[2] = test system: rat tail pressure antinociception; test: Rat tail pressure (RTP) antinociceptive test; type: in vivo; conditions: for agonist activity in the RPT test: in words
Text: Compounds of formula III were initially examined in two antinociceptive tests (in vivo) to assess their analgesic potential and are shown in the following Table 1. These tests were:
(2) The rat tail pressure (RTP) which is described by Green and Young, (Br. J. Pharmac Chemother., 6,572, 1951).

[3] = target: T1, mu opioid receptor (Mus musculus, UniProt P42866); test: Mouse vas deferens preparation (MVD), mu receptor (normorphine); type: cell-based; conditions: in vitro MVD; for Kb: antagonist of normorphine, read-out: ke, μ
T1 construct: mu agonist normorphine
T1 sequence (P42866 whole entry): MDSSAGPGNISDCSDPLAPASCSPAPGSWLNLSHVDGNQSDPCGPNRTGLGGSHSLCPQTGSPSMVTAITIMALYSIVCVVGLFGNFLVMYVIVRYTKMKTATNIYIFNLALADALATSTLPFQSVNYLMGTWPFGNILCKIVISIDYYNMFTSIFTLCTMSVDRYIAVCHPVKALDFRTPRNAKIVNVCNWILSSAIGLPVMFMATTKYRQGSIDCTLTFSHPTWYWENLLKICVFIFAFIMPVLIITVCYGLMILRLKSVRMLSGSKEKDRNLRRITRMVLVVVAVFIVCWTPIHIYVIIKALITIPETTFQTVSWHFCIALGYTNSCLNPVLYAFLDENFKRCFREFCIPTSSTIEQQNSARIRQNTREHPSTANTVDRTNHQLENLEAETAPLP
Text: (§1) To obtain some insight into the profiles at opioid receptor subtypes compounds of formula III where R=H, Cl, Br and Me were therefore examined in isolated tissue preparations. Comparative data on the previously disclosed dehydro compounds of formula III is also included. The results obtained in the mouse was deferens preparation (MVD)(Henderson et al Brit J Pharmacol., 46,764, 1972) for these compounds are shown in Table 2. Although the unsubstituted compounds (R=H) were full agonists in this test situation no delta-agonist properties could be detected. […] The corresponding methyl and bromo dihydro compounds were antagonists with the rank order of affinities: mu>delta>kappa.
(§2) ke = Molar concentration of antagonist at which twice the concentration o
(§3) the agonist was required to produce the same response as that produced in
(§4) the absence of the antagonist; μ Agonist = Normorphine (NM); kAgonist
(§5) Ethylketocyclazocine; dAgonist = DAla-D-Leu Enkephalin.

[4] = test system: drug reinforcing effects in rhesus monkeys; test: Self-administration study in codeine-trained rhesus monkeys (drug reinforcing effects); type: in vivo, rhesus monkey; conditions: for response rates maintained compared with codeine: similar conditions, FIGS. 2 and 3
Description: Drug reinforcing effects were evaluated in rhesus monkeys trained to respond for 0.32 mg/kg/iv injection of codeine.

[5] = target: T2, delta opioid receptor (Mus musculus, UniProt P32300); test: Mouse vas deferens preparation (MVD), delta receptor (DAla-D-Leu enkephalin); type: cell-based; conditions: for Kb: antagonist of DAla-D-Leu enkephalin, read-out: ke, d
T2 construct: delta agonist DAla-D-Leu enkephalin
T2 sequence (P32300 whole entry): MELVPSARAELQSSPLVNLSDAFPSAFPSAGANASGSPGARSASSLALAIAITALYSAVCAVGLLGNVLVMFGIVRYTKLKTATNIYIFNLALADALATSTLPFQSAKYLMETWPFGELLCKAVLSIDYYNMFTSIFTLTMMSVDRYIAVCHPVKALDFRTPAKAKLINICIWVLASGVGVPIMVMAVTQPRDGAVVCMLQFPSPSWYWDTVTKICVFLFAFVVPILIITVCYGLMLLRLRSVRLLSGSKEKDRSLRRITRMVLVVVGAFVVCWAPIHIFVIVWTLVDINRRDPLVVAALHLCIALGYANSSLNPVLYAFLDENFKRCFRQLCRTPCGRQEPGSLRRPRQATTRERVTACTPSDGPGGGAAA
Text: as §1, §2, §3, §4, §5

[6] = target: kappa receptor (Cavia porcellus, UniProt P41144); test: GPI preparation, kappa receptor agonism; type: cell-based, guinea pig; conditions: in words
Sequence of kappa receptor (P41144 whole entry): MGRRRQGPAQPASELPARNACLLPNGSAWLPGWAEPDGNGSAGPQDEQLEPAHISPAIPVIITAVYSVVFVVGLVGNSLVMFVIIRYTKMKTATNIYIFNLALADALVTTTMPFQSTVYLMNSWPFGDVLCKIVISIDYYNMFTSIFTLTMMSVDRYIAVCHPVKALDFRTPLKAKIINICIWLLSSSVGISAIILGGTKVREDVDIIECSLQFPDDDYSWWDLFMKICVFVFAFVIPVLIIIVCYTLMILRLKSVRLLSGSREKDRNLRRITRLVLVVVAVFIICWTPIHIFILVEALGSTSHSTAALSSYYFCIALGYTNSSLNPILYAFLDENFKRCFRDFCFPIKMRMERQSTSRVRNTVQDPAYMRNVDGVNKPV

[7] = test system: kappa opioid receptor; test: Mouse vas deferens preparation (MVD), kappa receptor (ethylketocyclazocine); type: cell-based; conditions: in vitro MVD; antagonist of ethylketocyclazocine; read-out: ke, k
Text: as §1, §2, §3, §4, §5

[8] = test system: opioid receptor subtypes; test: Mouse vas deferens preparation (MVD), agonist/antagonist profile at opioid receptor subtypes; type: cell-based; conditions: for rank order of affinities: antagonists
Text: as §1, §2, §3, §4, §5

[9] = test system: kappa and mu receptors; test: DMPP stimulated guinea pig ileum (GPI) preparation (kappa and mu test); type: cell-based; conditions: in words
Text: *In the guinea pig ileum preparation (GPI), as described on page 268 of […]

[10] = test system: mu receptor; test: GPI preparation, mu receptor agonism; type: cell-based, guinea pig; conditions: in words
[11] = target: T3, delta receptor (Mus musculus, UniProt P32300); test: MVD agonist effects of compound I in absence/presence of RX 8008M or naltrexone; type: cell-based
T3 construct: agonism of compound I with delta-selective antagonist RX or mu-selective naltrexone
T3 sequence (P32300 whole entry): as the sequence (P32300 whole entry) above
Text: ^a Groups (n = 2-6) of MVD used in each treatment schedule.
^b IC40 is the concentration of agonist required to reduce the
maximal contraction to electrical stimulation by 40 percent. The slow
values in the presence or absence of the antagonists in the same

## O=CN[C@@]12CCC(=O)[C@@H]3Oc4c(O)ccc5c4[C@@]31CCN(CC1CC1)[C@@H]2C5 [Example 108]
[1]
  AD50 (RTF test): 0.16 mg/kg
[2]
  agonist activity in the RPT test: neither the dehydro compound (Example 49) nor the dihydro compound (Example 108) exhibited agonist activity

## O=CN[C@@]12C=CC(=O)[C@@H]3Oc4c(O)ccc5c4[C@@]31CCN(CC1CC1)[C@@H]2C5 [Example 49]
[1]
  AD50 (RTF test): 0.132 mg/kg
[2]
  agonist activity in the RPT test: neither the dehydro compound (Example 49) nor the dihydro compound (Example 108) exhibited agonist activity

## COc1ccc2c3c1O[C@H]1C(=O)CC[C@@]4(NC(=O)C=Cc5ccc(C)cc5)[C@@H](C2)N(CC2CC2)CC[C@]314 [Me dihydro]
[3]
  Kb: 0.28 nM
[4]
  response rates maintained compared with codeine: appropriately equal to the level of responding maintained by codeine
[5]; in vitro MVD
  Kb: 19.3 nM
[6]
  kappa agonist activity in GPI: predominantly kappa partial agonist activity
[7]
  Kb: 66.3 nM
[8]; in vitro MVD
  rank order of affinities: mu>delta>kappa
[8]; in vitro MVD, in words
  MVD activity profile: antagonists

## COc1ccc2c3c1O[C@H]1C(=O)C=C[C@@]4(NC(=O)C=Cc5ccccc5)[C@@H](C2)N(CC2CC2)CC[C@]314 [Ex. 15]
[3]
  agonist potency relative to normorphine (× NM): 200 × NM
[8]; in vitro MVD, in words
  MVD activity profile: μ and k-Agonist

## COc1ccc2c3c1O[C@H]1C(=O)C=C[C@@]4(NC(=O)C=Cc5ccc(C)cc5)[C@@H](C2)N(CC2CC2)CC[C@]314 [Ex. 92]
[8]; in vitro MVD, in words
  MVD activity profile: Partial μ Agonist

## COc1ccc2c3c1O[C@H]1C(=O)CC[C@@]4(NC(=O)C=Cc5ccc(Br)cc5)[C@@H](C2)N(CC2CC2)CC[C@]314 [Br dihydro]
[3]
  Kb: 0.32 nM
[9]
  GPI dose-response curve / agonist activity: negligible agonist activity
[4]
  response rates maintained compared with codeine: appropriately equal to the level of responding maintained by codeine
[5]; in vitro MVD
  Kb: 8.6 nM
[7]
  Kb: 27.3 nM
[8]; in vitro MVD
  rank order of affinities: mu>delta>kappa
[8]; in vitro MVD, in words
  MVD activity profile: antagonists
[8]; in words
  agonist activity in MVD: negligible agonist activity

## COc1ccc2c3c1O[C@H]1C(=O)CC[C@@]4(NC(=O)C=Cc5ccc(Cl)cc5)[C@@H](C2)N(CC2CC2)CC[C@]314 [I, 14-β-p-chlorocinnamoylamino-7,8-dihydro-N-cyclopropylmethyl-norcodeinone]
[10]; DMPP stimulated GPI
  mu agonist activity in GPI: low intrinsic activity mu agonist
[10]
  intrinsic activity at mu receptors, in vitro summary: low intrinsic acitivity at mu receptors
[9]
  GPI dose-response curve / agonist activity: very shallow dose-response curve
[9]; RX 8008M (25 nM)
  antagonism of GPI response by RX 8008M: atagonised by RX 8008M (25 nM)
[11]
  IC40: 0.098 ng/mL
[11]; MVD, + RX 8008M (10 ng/ml)
  IC40 in presence of RX 8008M: 9.15 + 3.4 ng/ml
[11]; MVD, + naltrexone (100 ng/ml)
  IC40 in presence of naltrexone: 1.44 + 0.01 ng/ml
[4]; 0.0003-0.01 mg/kg, i.v., substituted for codeine, single 130 minute sessions, FIG. 1
  response rates maintained compared with saline: identical to those maintained by saline
[5]; in vitro MVD, Table 2, read-out: ED40 (d-agonism)
  EC40: 3.1 ng/mL (≈ 5.97 nM)
[5]; in vitro MVD, in words
  delta agonism in MVD: delta-agonist activity; also recorded: d-Agonist
[5]; in words
  intrinsic activity at delta-receptors, in vitro summary: substantial level of intrinsic activity at delta-receptors

## COc1ccc(C=CC(=O)N[C@@]23CCC(=O)[C@@H]4Oc5c(OC)ccc6c5[C@@]42CCN(CC2CC2)[C@@H]3C6)cc1 [OMe dihydro]
[2]; at 1 mg/kg, Table 1
  RTP, percent effect: 40%

## COc1ccc2c3c1O[C@H]1C(=O)CC[C@@]4(NC(=O)C=Cc5ccccc5)[C@@H](C2)N(CC2CC2)CC[C@]314 [H dihydro]
[3]
  agonist potency relative to normorphine (× NM): 72,000 × NM
[5]; in vitro MVD, in words
  delta agonism in MVD: No d-agonism detected
[8]; in vitro MVD, in words
  MVD activity profile: μ Agonist

## COc1ccc2c3c1O[C@H]1C(=O)C=C[C@@]4(NC(=O)C=Cc5ccc(Cl)cc5)[C@@H](C2)N(CC2CC2)CC[C@]314 [Ex. 91]
[5]; in vitro MVD, in words
  delta agonism in MVD: No d-agonism detected
[8]; Mus musculus, in vitro MVD, Table 2, read-out: ED40 (μ + k-agonism)
  EC40: > 300 ng/mL
[8]; in vitro MVD, in words
  MVD activity profile: Weak μ + k-Agonist

From patent US4925848A, “Derivative of codeine useful as an agonist and process for the preparation of it” (Reckitt & Colman Products Limited, priority 1987, dated 1990)
